Molecular target: T1, human GluR4B receptor (Homo sapiens, UniProt P48058)
T1 construct: expressed in transfected cells
Assay: Potentiation of agonist-induced excitability of human GluR4B expressed in HEK 293 cells
Assay type: cell-based
Conditions: human GluR4B receptor expressed in HEK 293 cells
Description: The ability of compounds of formula I to potentiate glutamate receptor-mediated response may be determined using fluorescent calcium indicator dyes (Molecular Probes, Eugene, Oreg., Fluo-3) and by measuring glutamate-evoked efflux of calcium into GluR4 transfected HEK293 cells, as described in more detail below.
In one test, 96 well plates containing confluent monolayers of HEK cells stably expressing human GluR4B (obtained as described in European Patent Application Publication Number EP-A1-583917) are prepared. The tissue culture medium in the wells is then discarded, and the wells are each washed once with 200 μl of buffer (glucose, 10 mM, sodium chloride, 138 mM, magnesium chloride, 1 mM, potassium chloride, 5 mM, calcium chloride, 5 mM, N-[2-hydroxyethyl]-piperazine-N-[2-ethanesulfonic acid], 10 mM, to pH 7.1 to 7.3). […]
Each test is then performed as follows. […] A second fluorescent reading is taken after 5 minutes incubation. 15 μl of 400 μM glutamate solution is then added to each well (final glutamate concentration 100 μM), and a third reading is taken. The activities of test compounds and cyclothiazide solutions are determined by subtracting the second from the third reading (fluorescence due to addition of glutamate in the presence or absence of test compound or cyclothiazide) and are expressed relative to enhance fluorescence produced by 100 μM cyclothiazide.

T1 sequence (P48058 21-902): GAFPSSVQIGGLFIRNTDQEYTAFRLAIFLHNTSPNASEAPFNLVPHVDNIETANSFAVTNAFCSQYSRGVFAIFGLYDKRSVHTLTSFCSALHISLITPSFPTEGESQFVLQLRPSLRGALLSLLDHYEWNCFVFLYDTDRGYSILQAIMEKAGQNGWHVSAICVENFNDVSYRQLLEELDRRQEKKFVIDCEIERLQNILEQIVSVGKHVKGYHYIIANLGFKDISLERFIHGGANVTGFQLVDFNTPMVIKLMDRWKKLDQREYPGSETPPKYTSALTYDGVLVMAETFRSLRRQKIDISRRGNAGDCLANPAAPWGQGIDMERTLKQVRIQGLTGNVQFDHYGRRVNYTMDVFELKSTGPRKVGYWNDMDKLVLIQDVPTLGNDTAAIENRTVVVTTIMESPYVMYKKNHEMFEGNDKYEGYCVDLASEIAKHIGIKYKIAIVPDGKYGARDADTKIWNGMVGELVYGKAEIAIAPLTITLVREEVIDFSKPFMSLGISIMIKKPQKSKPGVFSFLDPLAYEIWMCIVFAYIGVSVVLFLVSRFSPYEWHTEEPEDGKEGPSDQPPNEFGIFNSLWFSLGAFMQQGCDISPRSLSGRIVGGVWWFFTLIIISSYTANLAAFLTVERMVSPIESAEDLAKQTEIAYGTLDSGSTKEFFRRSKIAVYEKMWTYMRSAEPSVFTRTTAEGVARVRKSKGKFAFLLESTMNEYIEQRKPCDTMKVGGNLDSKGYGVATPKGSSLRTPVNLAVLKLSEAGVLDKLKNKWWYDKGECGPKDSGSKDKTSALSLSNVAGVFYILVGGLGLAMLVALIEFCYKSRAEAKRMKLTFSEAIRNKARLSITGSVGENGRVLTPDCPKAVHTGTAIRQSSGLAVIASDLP

NS(=O)(=O)c1cc2c(cc1Cl)NC(C1CC3C=CC1C3)NS2(=O)=O (stereo not shown) [cyclothiazide]
potentiation of agonist-induced excitability: potentiate
